# Experimental data as given in US5276034A, “Substituted imidazolyl-alkyl-piperazine and -diazepine derivatives” (Syntex Pharmaceutical Ltd., priority 1991, dated 1994).
# Experiments:
# [1] = test system: abnormal neurones in brain after bilateral common carotid artery occlusion; experiment: Five minute model of bilateral common carotid artery occlusion in the gerbil with 72 hour survival; assay type: in vivo; conditions: then b.i.d. for 72 h
# Experimental: In vivo protective effects of the compounds of this invention against the deleterious effects of cerebral ischemia are determined by use of the standard gerbil brain ischemia model.
# A. Five minute model of bilateral common carotid artery occlusion in the gerbil with 72 hour survival
# 2) Sham-operated animals--The animals were anesthetized with a halothane-nitrous oxide-oxygen mixture. […] The microscopic sections were prepared and counted as in 1) above. In this case 7 animals were used and 100 microscopic fields were counted.
# 3) Untreated ischemic controls--In this case animals were subjected to 5 minute bilateral carotid artery occlusion with 72 hour survival. The microscopic sections were prepared and counted as in 1) above. In this case 12 animals were used and 120 microscopic fields were counted.
# (§1) 4) Parenteral, 15 minute pre-ischemia treated--The animals were given 500 mg/kg i.p. of 1-diphenylmethyl-4-[(2-(4-methylphenyl)-5-methylimidazol-4-yl)methyl]piperazine trihydrochloride 15 minutes prior to ischaemic insult. The treatment was repeated b.i.d. for 72 hours. The microscopic sections were prepared and counted as in 1) above. In this case 10 animals were used and 100 microscopic fields were counted.
# as §1, with “5) Parenteral” for “4) Parenteral,”, “pre-ischemic” for “pre-ischemia”, “250” for “500”, “Treatment” for “The treatment”, “6” for “10”, “60” for “100”
# as §1, with “6) Parenteral” for “4) Parenteral,”, “post-ischemia” for “pre-ischemia”, “after” for “prior to”, “9” for “10”, “90” for “100”
# 7) Oral, pre-ischemia treated--The animals were given 5 mg/kg p.o. b.i.d. of 1-diphenyl-methyl-4-[(2-(4-methylphenyl)-5-methylimidazol-4-yl)-methyl]piperazine trihydrochloride for 3 days and on the 4th day at 1 hour pre-ischaemic. Treatment was repeated b.i.d. for 72 hours. The microscopic sections were prepared and counted as in 1) above. In this case 11 animals were used and 110 microscopic fields were counted.
# 8) Oral, pre-ischemia treated--The animals were given 10 mg/kg p.o. of 1-diphenyl-methyl-4-[(2-(4-methylphenyl)-5-methylimidazol-4-yl)-methyl]piperazine trihydrochloride for 3 days and on 4th day at 1 hour pre-ischaemia.Treatment was repeated b.i.d. for 72 hours. The microscopic sections were prepared and counted as in 1) above. In this case 9 animals were used and 90 microscopic fields were counted.
# [2] = test system: abnormal neurones in brain areas after four vessel occlusion; experiment: Ten minute model of four vessel occlusion with 72 hour survival; assay type: in vivo; conditions: 100 mg/kg i.a. 5 min plus 500 mg/kg i.p. 15 min post-ischaemia
# Experimental: B. Ten minute Model of four vessel occlusion with 72 hour survival.
# The procedure used was that of Alps, et al., Neurology, 37, 809 (1987). The object of this assay was to count abnormally appearing cells in 7 different areas and exymers as a percentage of the total area counted. The number of counts per structure depended upon size, e.g., cortical areas had double the number of other areas. Mean whole brain scores were also determined for percent abnormalities. Normal brains were also used to account for incidence of artifact changes attributed to the fixation process.
# . In this case 6 animals were used with the results shown in the below table.
# 2) Untreated (saline) ischemic controls--The animals were subjected to 10 minutes of bilateral common cartoid artery occlusion (with previously surgically sealed vertebral arteries) with 72 hours survival. The microscopic sections were prepared as in 1) above. In this case 11 animals were used with the results shown in the below table.
# Parenteral, post-ischaemia treated--The animals were given 100 mg/kg i.a. of 1-diphenyl-methyl-4-[(2-(4-methylphenyl)-5-methylimidazol-4-yl)-methyl]piperazine trihydrochloride 5 minutes post-ischaemia plus 500 mg/kg i.p. of 1-diphenyl-methyl-4-[(2-(4-methylphenyl)-5-methylimidazol-4-yl)-methyl]piperazine trihydrochloride 15 minutes post-ischaemia. The microscopic sections were prepared according to 1) above. In this case 5 animals were used with the results shown in the below table.
# [3] = test system: male normotensive rats (urine volume, sodium and potassium excretion); experiment: Diuresis in male normotensive rats; assay type: in vivo, rat
# Experimental: Male normotensive rats weighing 290-380 g were divided into four groups of seven animals. All animals were fasted and deprived of water overnight. The following morning, each group of rats was hydrated with deionized water ([…]. p.o.) 45 minutes prior to the administration of vehicle (1% polysorbate 80 in deionized water) or 1-diphenyl-methyl-4-[(2-(4-methylphenyl)-5-methylimidazol-4-yl)methyl]-piperazine trihydrochloride at doses of 5, 15, or 30 mg/kg p.o. Fifteen minutes post-drug, the animals were saline loaded (30 ml/kg, p.o. 0.9% sodium chloride) and placed individually in metabolism cages. Urine was collected at 1, 3, and 6 hour intervals post-dose. Urine volumes were measured and sodium and potassium levels were determined by flame photometry. Differences between control and treated values were evaluated by one way analysis of variance.
# [4] = test system: pentylenetetrazole-induced seizures and mortality; experiment: Effect on pentylenetetrazole-induced seizures and mortality in the mouse; assay type: in vivo, mouse (male CDI); conditions: 500 mg/kg i.p., pentylenetetrazole 100 mg/kg s.c.
# Experimental: C. The effect of 1-diphenyl-methyl-4-[(2-(4-methylphenyl)-5-methylimidazol-4-yl)-methyl]piperazine trihydrochloride on pentylenetetrazole-induced seizures and mortality in the mouse.
# The procedure used was that described in Allely, and Alps, Br. J. Phramacol. Proc. Suppl., 92, 605P (1987). Groups of 20 or more (see n in table) male CDI mice were predosed with 500 mg/kg i.p. of 1-diphenyl-methyl-4-[(2-(4-methylphenyl)-5-methylimidazol-4-yl)methyl]piperazine trihydrochloride at one of three dosing schedules--A (15minutes), B (60 minutes), or C (3 days b.i.d. plus 15 minutes on 4th day)--before challenging with 100 mg/kg of pentylenetetrazole s.c. The animals were then observed for a 30 minute period and the occurrence of clonic or tonic seizures or death noted. Statistical analysis was by a Chi squared test of association. Results compared against saline treated animals are shown in the below table.
# [5] = test system: barium-stimulated intestinal transit of the charcoal meal; experiment: Irritable bowel syndrome: intestinal transit of a charcoal meal in conscious mice, barium chloride stimulated; assay type: in vivo, mouse
# Experimental: (§2) The test used is a modification of the method of Macht and Barba-Gose, J. Amer. Pharm. […] In the present model, intestinal transit in conscious mice (15-20 g) was accelerated with an oral dose of barium chloride (300 mg/kg) administered at the same time as the charcoal meal. The animals were sacrificed 10 minutes later and the distance travelled by the charcoal measured. 1-diphenyl-methyl-4-[(2-(4-methylphenyl)-5-methylimidazol-4-yl)methyl]-piperazine trihydrochloride was given as a 15 minute oral pre-treatment and its effect on non-stimulated or barium-stimulated intestinal transit of the charcoal meal was calculated.
# [6] = test system: non-stimulated intestinal transit of the charcoal meal; experiment: Intestinal transit of a charcoal meal in conscious mice, non-stimulated; assay type: in vivo; conditions: Mus musculus, po, 15 min pre-treatment, read-out: % Inhibition Normal Transition
# Experimental: as §2
# [7] = in vivo; cited from earlier work
# [8] = schedule C (3 days b.i.d. plus 15 minutes on 4th day), n=24
compound,measurement,setting,value
Cc1ccc(-c2nc(CN3CCN(C(c4ccccc4)c4ccccc4)CC3)c(C)[nH]2)cc1.Cl.Cl.Cl [1-diphenylmethyl-4-[(2-(4-methylphenyl)-5-methylimidazol-4-yl)methyl]piperazine trihydrochloride],mean % abnormal neurones,[1]; 5 mg/kg p.o. b.i.d. 3 days and 1 h pre-ischemia,3.00±1.00%
same,mean % abnormal neurones,[1]; 10 mg/kg p.o. 3 days and 1 h pre-ischemia,22.00±3.10%
same,mean % abnormal neurones,[1]; 250 mg/kg i.p. 15 min pre-ischemia,27.20±4.30%
same,mean % abnormal neurones,[1]; 500 mg/kg i.p. 15 min post-ischemia,41.70±4.60%
same,mean % abnormal neurones,[1]; 500 mg/kg i.p. 15 min pre-ischemia,26.90±3.30%
same,"Mean % Abnormal Neurones, Hip C2-5",[2]; Hip C2-5,1.78 ± 0.99%
same,"Mean % Abnormal Neurones, Hip CA",[2]; Hip CA,16.76 ± 4.00%
same,"Mean % Abnormal Neurones, Hip. Cortex",[2]; Hip. Cortex,2.41 ± 0.30%
same,"Mean % Abnormal Neurones, Purk. cells",[2]; Purk. cells,2.22 ± 0.79%
same,"Mean % Abnormal Neurones, Str. Cortex",[2]; Str. Cortex,2.01 ± 0.29%
same,"Mean % Abnormal Neurones, Striatum",[2]; Striatum,1.54 ± 0.33%
same,"Mean % Abnormal Neurones, Thalamus",[2]; Thalamus,0.64 ± 0.25%
same,"Potassium ion, Cumulative","[3]; 5 mg/kg p.o., 1 hour",.04 ± .03 mEq
same,"Sodium ion, Cumulative","[3]; 5 mg/kg p.o., 1 hour",.07 ± .06 mEq
same,"Urine Volume, Cumulative","[3]; 5 mg/kg p.o., 1 hour",5.7 ± 2.5 mL
same,"Potassium ion, Cumulative","[3]; 5 mg/kg p.o., 3 hours",.16 ± .09 mEq
same,"Sodium ion, Cumulative","[3]; 5 mg/kg p.o., 3 hours",.39 ± .25 mEq
same,"Urine Volume, Cumulative","[3]; 5 mg/kg p.o., 3 hours",9.5 ± 3.6 mL
same,"Potassium ion, Cumulative","[3]; 5 mg/kg p.o., 6 hours",.26 ± .12 mEq
same,"Sodium ion, Cumulative","[3]; 5 mg/kg p.o., 6 hours",.73 ± .32 mEq
same,"Urine Volume, Cumulative","[3]; 5 mg/kg p.o., 6 hours",11.8 ± 3.9 mL
same,"Potassium ion, Cumulative","[3]; 15 mg/kg p.o., 1 hour",.04 ± .05 mEq
same,"Sodium ion, Cumulative","[3]; 15 mg/kg p.o., 1 hour",.12 ± .16 mEq
same,"Urine Volume, Cumulative","[3]; 15 mg/kg p.o., 1 hour",5.7 ± 4.4 mL
same,"Potassium ion, Cumulative","[3]; 15 mg/kg p.o., 3 hours",.12 ± .06 mEq
same,"Sodium ion, Cumulative","[3]; 15 mg/kg p.o., 3 hours",.44 ± .20 mEq
same,"Urine Volume, Cumulative","[3]; 15 mg/kg p.o., 3 hours",9.8 ± 3.2 mL
same,"Potassium ion, Cumulative","[3]; 15 mg/kg p.o., 6 hours",.20 ± .08 mEq
same,"Sodium ion, Cumulative","[3]; 15 mg/kg p.o., 6 hours",.68 ± .28 mEq
same,"Urine Volume, Cumulative","[3]; 15 mg/kg p.o., 6 hours",11.7 ± 3.3 mL
same,"Potassium ion, Cumulative","[3]; 30 mg/kg p.o., 1 hour",.04 ± .03 mEq
same,"Sodium ion, Cumulative","[3]; 30 mg/kg p.o., 1 hour",.15 ± .12 mEq
same,"Urine Volume, Cumulative","[3]; 30 mg/kg p.o., 1 hour",6.5 ± 2.3 mL
same,"Potassium ion, Cumulative","[3]; 30 mg/kg p.o., 3 hours",.15 ± .08 mEq
same,"Sodium ion, Cumulative","[3]; 30 mg/kg p.o., 3 hours",.79 ± .38 mEq
same,"Urine Volume, Cumulative","[3]; 30 mg/kg p.o., 3 hours",10.5 ± 2.5 mL
same,"Potassium ion, Cumulative","[3]; 30 mg/kg p.o., 6 hours",.27 ± .06 mEq
same,"Sodium ion, Cumulative","[3]; 30 mg/kg p.o., 6 hours",1.48 ± .24 mEq
same,"Urine Volume, Cumulative","[3]; 30 mg/kg p.o., 6 hours",14.6 ± 1.4 mL
same,diuresis,"[3]; 30 mg/kg p.o., at 1 hour and 6 hours post-drug",significant (p<0.05) diuresis
same,natriuretic effect,"[3]; 30 mg/kg p.o., at the 3 and 6 hour time periods",significant natriuretic effect
same,kaliuretic effects,"[3]; following compound administration, p.o.",No significant kaliuretic effects were observed
same,% clonic seizures,"[4]; schedule A (15 minutes), n=20",85.0%
same,% death,"[4]; schedule A (15 minutes), n=20",50.0%
same,% tonic seizures,"[4]; schedule A (15 minutes), n=20",85.0%
same,% clonic seizures,"[4]; schedule B (60 minutes), n=25",88.0%
same,% death,"[4]; schedule B (60 minutes), n=25",36.0%
same,% tonic seizures,"[4]; schedule B (60 minutes), n=25",64.0%
same,% clonic seizures,[4]; [8],66.7%
same,% death,[4]; [8],45.0%
same,% tonic seizures,[4]; [8],41.7%
same,inhibition at 5 mg/kg,"[5]; Mus musculus, po, 5 mg/kg p.o., 15 min pre-treatment, % of total transit induced by Ba^+2, read-out: % Inhibition of Ba^+2 effect",14%
same,inhibition at 25 mg/kg,"[5]; Mus musculus, po, 25 mg/kg p.o., 15 min pre-treatment, % of total transit induced by Ba^+2, read-out: % Inhibition of Ba^+2 effect",-30.4%
same,inhibition at 60 mg/kg,"[5]; Mus musculus, po, 60 mg/kg p.o., 15 min pre-treatment, % of total transit induced by Ba^+2, read-out: % Inhibition of Ba^+2 effect",-31.7%
same,inhibition at 5 mg/kg,[6]; 5 mg/kg p.o.,-19.3%
same,inhibition at 25 mg/kg,[6]; 25 mg/kg p.o.,-28.7%
same,inhibition at 60 mg/kg,[6]; 60 mg/kg p.o.,-16.1%
"[Ba+2].[Cl-].[Cl-] [barium chloride, reference compound]",% Change Ba^+2,"[5]; barium chloride 300 mg/kg oral, effect of Ba^+2 on transit",+93%
Clc1ccccc1CN1CCc2sccc2C1 [ticlopidine],risk of a second ischemic event,[7],demonstrated to reduce the risk of a second ischemic event
